# Source: patent publication US6403082B1, “Bacteriocins, transport and vector system and method of use thereof” (priority 1996, dated 2002)
# Values joined by “and” are separate entries in the source; they are usually repeats but may differ in a detail not shown here. Equal entries are not always repeated. Marks after values point to notes of the source that are not given here.
# Legend:
# Experiment in all cases: Spot test of partially purified bacteriocins on strains grown on agar
# Pediococcus = tested on: Pediococcus
# Streptococcus = tested on: Streptococcus
# [1] = tested on: Clostridia vegetative cells; type: cell-based, Clostridium
# Leuconostoc = tested on: Leuconostoc
# Carnobacteria = tested on: Carnobacteria
# Staphylococcus = tested on: Staphylococcus
# Clostridia spores = type: cell-based, Clostridium
# G negative strains = type: cell-based
# Listeria = tested on: Listeria
# Lactococcus = tested on: Lactococcus
# Enterococcus = tested on: Enterococcus
# Bacillus spores = type: cell-based
# Lactobacillus = tested on: Lactobacillus
# Brochothrix = tested on: Brochothrix
# [2] = tested on: Bacillus vegetative cells; type: cell-based
# [3] = 8AU (10 μl/spot of 800 AU/ml), listed as Mesent Y105
# [4] = 1AU (10 μl/spot of 100 AU/ml), listed as Mesent Y105
substance,measurement,setting,value
Enterocin 900: broad spectrum bacteriocin of 71 amino acids (SEQ ID NO:30) produced by Enterococcus faecium 900 (MKKELLNKNEMSRIIGGKINWGNVGGSCVGGAVIGGALGGLGGAGGGCITGAIGSIWDQ; Brochocin-C peptide B;),Number of strains inhibited/Number of strains tested,Pediococcus; 1AU (10 μl/spot of 100 AU/ml),0/3
same,Number of strains inhibited/Number of strains tested,Pediococcus; 8AU (10 μl/spot of 800 AU/ml),0/3
same,Number of strains inhibited/Number of strains tested,Streptococcus; 1AU (10 μl/spot of 100 AU/ml),0/3
same,Number of strains inhibited/Number of strains tested,Streptococcus; 8AU (10 μl/spot of 800 AU/ml),0/3
same,Number of strains inhibited/Number of strains tested,[1]; 1AU (10 μl/spot of 100 AU/ml),2/8
same,Number of strains inhibited/Number of strains tested,[1]; 8AU (10 μl/spot of 800 AU/ml),3/8
same,Number of strains inhibited/Number of strains tested,Leuconostoc; 1AU (10 μl/spot of 100 AU/ml),1/9
same,Number of strains inhibited/Number of strains tested,Leuconostoc; 8AU (10 μl/spot of 800 AU/ml),1/9
same,Number of strains inhibited/Number of strains tested,Carnobacteria; 1AU (10 μl/spot of 100 AU/ml),1/19
same,Number of strains inhibited/Number of strains tested,Carnobacteria; 8AU (10 μl/spot of 800 AU/ml),7/19
same,Number of strains inhibited/Number of strains tested,Staphylococcus; 1AU (10 μl/spot of 100 AU/ml),1/7
same,Number of strains inhibited/Number of strains tested,Staphylococcus; 8AU (10 μl/spot of 800 AU/ml),1/7
same,Number of strains inhibited/Number of strains tested,Clostridia spores; 1AU (10 μl/spot of 100 AU/ml),0/7
same,Number of strains inhibited/Number of strains tested,Clostridia spores; 8AU (10 μl/spot of 800 AU/ml),0/7
same,Number of strains inhibited/Number of strains tested,G negative strains; 1AU (10 μl/spot of 100 AU/ml),0/29
same,Number of strains inhibited/Number of strains tested,G negative strains; 8AU (10 μl/spot of 800 AU/ml),0/29
same,Number of strains inhibited/Number of strains tested,Listeria; 1AU (10 μl/spot of 100 AU/ml),39/42
same,Number of strains inhibited/Number of strains tested,Listeria; 8AU (10 μl/spot of 800 AU/ml),39/42
same,Number of strains inhibited/Number of strains tested,Lactococcus; 1AU (10 μl/spot of 100 AU/ml),4/8
same,Number of strains inhibited/Number of strains tested,Lactococcus; 8AU (10 μl/spot of 800 AU/ml),4/8
same,Number of strains inhibited/Number of strains tested,Enterococcus; 1AU (10 μl/spot of 100 AU/ml),5/14
same,Number of strains inhibited/Number of strains tested,Enterococcus; 8AU (10 μl/spot of 800 AU/ml),8/14
same,Number of strains inhibited/Number of strains tested,Bacillus spores; 1AU (10 μl/spot of 100 AU/ml),0/5
same,Number of strains inhibited/Number of strains tested,Bacillus spores; 8AU (10 μl/spot of 800 AU/ml),0/5
same,Number of strains inhibited/Number of strains tested,Lactobacillus; 1AU (10 μl/spot of 100 AU/ml),2/17
same,Number of strains inhibited/Number of strains tested,Lactobacillus; 8AU (10 μl/spot of 800 AU/ml),5/17
same,Number of strains inhibited/Number of strains tested,Brochothrix; 1AU (10 μl/spot of 100 AU/ml),0/14
same,Number of strains inhibited/Number of strains tested,Brochothrix; 8AU (10 μl/spot of 800 AU/ml),0/14
same,Number of strains inhibited/Number of strains tested,[2]; 1AU (10 μl/spot of 100 AU/ml),0/5
same,Number of strains inhibited/Number of strains tested,[2]; 8AU (10 μl/spot of 800 AU/ml),2/5
"Mesen Y105: mesentericin Y105, an anti-Listeria bacteriocin from Leuconostoc mesenteroides (KYYGNGVHCTKSGCSVNWGEAASAGIHRLANGGNGFW; UniProt P38577 25-61, looked up)",Number of strains inhibited/Number of strains tested,Pediococcus; 1AU (10 μl/spot of 100 AU/ml),0/3
same,Number of strains inhibited/Number of strains tested,Pediococcus; 8AU (10 μl/spot of 800 AU/ml),0/3
same,Number of strains inhibited/Number of strains tested,Streptococcus; 1AU (10 μl/spot of 100 AU/ml),0/3
same,Number of strains inhibited/Number of strains tested,Streptococcus; 8AU (10 μl/spot of 800 AU/ml),3/3^g
same,Number of strains inhibited/Number of strains tested,Streptococcus; [3],3/3
same,Number of strains inhibited/Number of strains tested,[1]; 1AU (10 μl/spot of 100 AU/ml),0/8
same,Number of strains inhibited/Number of strains tested,[1]; 8AU (10 μl/spot of 800 AU/ml),1/8^d
same,Number of strains inhibited/Number of strains tested,[1]; [3],1/8
same,Number of strains inhibited/Number of strains tested,Leuconostoc; 1AU (10 μl/spot of 100 AU/ml),5/9
same,Number of strains inhibited/Number of strains tested,Leuconostoc; 8AU (10 μl/spot of 800 AU/ml),6/9^o
same,Number of strains inhibited/Number of strains tested,Leuconostoc; [3],6/9
same,Number of strains inhibited/Number of strains tested,Carnobacteria; 1AU (10 μl/spot of 100 AU/ml),17/19^j
same,Number of strains inhibited/Number of strains tested,Carnobacteria; [4],17/19
same,Number of strains inhibited/Number of strains tested,Carnobacteria; 8AU (10 μl/spot of 800 AU/ml),19/19
same,Number of strains inhibited/Number of strains tested,Staphylococcus; 1AU (10 μl/spot of 100 AU/ml),1/7^cf
same,Number of strains inhibited/Number of strains tested,Staphylococcus; [4],1/7
same,Number of strains inhibited/Number of strains tested,Staphylococcus; 8AU (10 μl/spot of 800 AU/ml),7/7^cf
same,Number of strains inhibited/Number of strains tested,Staphylococcus; [3],7/7
same,Number of strains inhibited/Number of strains tested,Clostridia spores; 1AU (10 μl/spot of 100 AU/ml),0/7
same,Number of strains inhibited/Number of strains tested,Clostridia spores; 8AU (10 μl/spot of 800 AU/ml),0/7
same,Number of strains inhibited/Number of strains tested,G negative strains; 1AU (10 μl/spot of 100 AU/ml),0/29
same,Number of strains inhibited/Number of strains tested,G negative strains; 8AU (10 μl/spot of 800 AU/ml),0/29
same,Number of strains inhibited/Number of strains tested,Listeria; 1AU (10 μl/spot of 100 AU/ml),36/42^h
same,Number of strains inhibited/Number of strains tested,Listeria; [4],36/42
same,Number of strains inhibited/Number of strains tested,Listeria; 8AU (10 μl/spot of 800 AU/ml),42/42
same,Number of strains inhibited/Number of strains tested,Lactococcus; 1AU (10 μl/spot of 100 AU/ml),0/8
same,Number of strains inhibited/Number of strains tested,Lactococcus; 8AU (10 μl/spot of 800 AU/ml),1/8^n
same,Number of strains inhibited/Number of strains tested,Lactococcus; [3],1/8
same,Number of strains inhibited/Number of strains tested,Enterococcus; 1AU (10 μl/spot of 100 AU/ml),3/14^l
same,Number of strains inhibited/Number of strains tested,Enterococcus; [4],3/14
same,Number of strains inhibited/Number of strains tested,Enterococcus; 8AU (10 μl/spot of 800 AU/ml),9/14^l
same,Number of strains inhibited/Number of strains tested,Enterococcus; [3],9/14
same,Number of strains inhibited/Number of strains tested,Bacillus spores; 1AU (10 μl/spot of 100 AU/ml),5/5^b
same,Number of strains inhibited/Number of strains tested,Bacillus spores; [4],5/5
same,Number of strains inhibited/Number of strains tested,Bacillus spores; 8AU (10 μl/spot of 800 AU/ml),5/5^b
same,Number of strains inhibited/Number of strains tested,Bacillus spores; [3],5/5
same,Number of strains inhibited/Number of strains tested,Lactobacillus; 1AU (10 μl/spot of 100 AU/ml),1/17^m
same,Number of strains inhibited/Number of strains tested,Lactobacillus; [4],1/17
same,Number of strains inhibited/Number of strains tested,Lactobacillus; 8AU (10 μl/spot of 800 AU/ml),1/17^m
same,Number of strains inhibited/Number of strains tested,Lactobacillus; [3],2/17
same,Number of strains inhibited/Number of strains tested,Brochothrix; 1AU (10 μl/spot of 100 AU/ml),0/14
same,Number of strains inhibited/Number of strains tested,Brochothrix; 8AU (10 μl/spot of 800 AU/ml),0/14
same,Number of strains inhibited/Number of strains tested,[2]; 1AU (10 μl/spot of 100 AU/ml),3/5
same,Number of strains inhibited/Number of strains tested,[2]; 8AU (10 μl/spot of 800 AU/ml),5/5
Nisin,Number of strains inhibited/Number of strains tested,Pediococcus; 1AU (10 μl/spot of 100 AU/ml),3/3
same,Number of strains inhibited/Number of strains tested,Pediococcus; 8AU (10 μl/spot of 800 AU/ml),3/3
same,Number of strains inhibited/Number of strains tested,Streptococcus; 1AU (10 μl/spot of 100 AU/ml),1/3
same,Number of strains inhibited/Number of strains tested,Streptococcus; 8AU (10 μl/spot of 800 AU/ml),2/3
same,Number of strains inhibited/Number of strains tested,[1]; 1AU (10 μl/spot of 100 AU/ml),7/8
same,Number of strains inhibited/Number of strains tested,[1]; 8AU (10 μl/spot of 800 AU/ml),8/8
same,Number of strains inhibited/Number of strains tested,Leuconostoc; 1AU (10 μl/spot of 100 AU/ml),9/9
same,Number of strains inhibited/Number of strains tested,Leuconostoc; 8AU (10 μl/spot of 800 AU/ml),9/9
same,Number of strains inhibited/Number of strains tested,Carnobacteria; 1AU (10 μl/spot of 100 AU/ml),19/19
same,Number of strains inhibited/Number of strains tested,Carnobacteria; 8AU (10 μl/spot of 800 AU/ml),19/19
same,Number of strains inhibited/Number of strains tested,Staphylococcus; 1AU (10 μl/spot of 100 AU/ml),3/7
same,Number of strains inhibited/Number of strains tested,Staphylococcus; 8AU (10 μl/spot of 800 AU/ml),7/7
same,Number of strains inhibited/Number of strains tested,Clostridia spores; 1AU (10 μl/spot of 100 AU/ml),5/7
same,Number of strains inhibited/Number of strains tested,Clostridia spores; 8AU (10 μl/spot of 800 AU/ml),7/7
same,Number of strains inhibited/Number of strains tested,G negative strains; 1AU (10 μl/spot of 100 AU/ml),0/29
same,Number of strains inhibited/Number of strains tested,G negative strains; 8AU (10 μl/spot of 800 AU/ml),0/29
same,Number of strains inhibited/Number of strains tested,Listeria; 1AU (10 μl/spot of 100 AU/ml),42/42
same,Number of strains inhibited/Number of strains tested,Listeria; 8AU (10 μl/spot of 800 AU/ml),42/42
same,Number of strains inhibited/Number of strains tested,Lactococcus; 1AU (10 μl/spot of 100 AU/ml),4/8
same,Number of strains inhibited/Number of strains tested,Lactococcus; 8AU (10 μl/spot of 800 AU/ml),6/8^t and 6/8
same,Number of strains inhibited/Number of strains tested,Enterococcus; 1AU (10 μl/spot of 100 AU/ml),12/14
same,Number of strains inhibited/Number of strains tested,Enterococcus; 8AU (10 μl/spot of 800 AU/ml),14/14
same,Number of strains inhibited/Number of strains tested,Bacillus spores; 1AU (10 μl/spot of 100 AU/ml),5/5
same,Number of strains inhibited/Number of strains tested,Bacillus spores; 8AU (10 μl/spot of 800 AU/ml),5/5
same,Number of strains inhibited/Number of strains tested,Lactobacillus; 1AU (10 μl/spot of 100 AU/ml),16/17
same,Number of strains inhibited/Number of strains tested,Lactobacillus; 8AU (10 μl/spot of 800 AU/ml),17/17
same,Number of strains inhibited/Number of strains tested,Brochothrix; 1AU (10 μl/spot of 100 AU/ml),14/14
same,Number of strains inhibited/Number of strains tested,Brochothrix; 8AU (10 μl/spot of 800 AU/ml),14/14
same,Number of strains inhibited/Number of strains tested,[2]; 1AU (10 μl/spot of 100 AU/ml),5/5
same,Number of strains inhibited/Number of strains tested,[2]; 8AU (10 μl/spot of 800 AU/ml),5/5
